{"source": "paper PMC5259778", "about": "“Candidate pheromone receptors of codling moth Cydia pomonella respond to pheromones and kairomones” (Scientific Reports, 2017)", "key": {"CpomOrco + OR3": {"biological_target": "T1, CpomOrco + OR3 (Cydia pomonella, UniProt H9A5M3)", "T1 sequence (H9A5M3 1-426)": "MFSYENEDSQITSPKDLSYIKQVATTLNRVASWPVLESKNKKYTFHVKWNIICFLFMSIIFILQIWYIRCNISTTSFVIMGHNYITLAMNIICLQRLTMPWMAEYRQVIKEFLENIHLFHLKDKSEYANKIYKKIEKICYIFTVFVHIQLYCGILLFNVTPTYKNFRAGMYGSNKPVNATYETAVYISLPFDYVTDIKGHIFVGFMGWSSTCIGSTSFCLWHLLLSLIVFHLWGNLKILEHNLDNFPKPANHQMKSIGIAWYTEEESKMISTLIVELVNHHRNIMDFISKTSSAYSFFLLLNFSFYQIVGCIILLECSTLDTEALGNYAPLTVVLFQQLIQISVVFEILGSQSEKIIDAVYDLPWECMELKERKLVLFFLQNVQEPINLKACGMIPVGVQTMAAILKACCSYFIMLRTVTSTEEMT", "T1 sequence (H9A5M2 1-473 partner)": "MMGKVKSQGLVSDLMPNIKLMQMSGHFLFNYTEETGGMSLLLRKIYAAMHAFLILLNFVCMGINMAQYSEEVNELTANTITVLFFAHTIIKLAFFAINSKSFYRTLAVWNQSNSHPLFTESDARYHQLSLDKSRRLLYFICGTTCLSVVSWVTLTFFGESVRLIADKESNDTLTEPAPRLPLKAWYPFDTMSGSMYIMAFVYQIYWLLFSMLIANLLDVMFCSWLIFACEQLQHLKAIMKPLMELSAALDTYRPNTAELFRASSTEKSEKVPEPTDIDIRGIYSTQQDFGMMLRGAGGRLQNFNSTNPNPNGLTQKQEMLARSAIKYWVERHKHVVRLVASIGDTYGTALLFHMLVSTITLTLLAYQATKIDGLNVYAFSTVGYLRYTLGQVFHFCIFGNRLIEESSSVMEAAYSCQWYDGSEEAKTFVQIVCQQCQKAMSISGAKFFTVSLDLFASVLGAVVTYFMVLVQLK", "experiment": "Calcium imaging of HEK293T cells expressing CpomOrco + OR3", "type": "cell-based", "method": "HEK293T cells were grown in HEK cell media [Dulbecco’s modified Eagle’s medium containing 10% fetal bovine serum (MP Biomedicals, Solon, OH, USA), 2.0 mM L-glutamine, and 100 μg/mL Penicillin/Streptomycin (Invitrogen)] at 37 °C and 5% CO2. To test transient expression of CpomORs for calcium imaging or patch-clamp recording experiments, 35-mm petri dishes containing semi-confluent HEK293T cells were transiently transfected. To transfect cells with CpomOrco, we used 1.0 μg of pcDNA5/TO/CpomOrco DNA. In order to promote expression of the OR[51], we used double aliquots for pcDNA5/TO/CpomOR DNAs (2.0 μg), combined with 1.0 μg of pcDNA5/TO/CpomOrco for co-transfections (CpomOrco + ORs). […] In order to report candidate OR-expressing cells, expression of both fluorescent reporter genes was under the regulation of the same promoter for CpomOR genes (CMV). Transfection DNAs were dissolved in 100 μL sterile DMEM, mixed with 3.0 μL Calfectin (SignaGen, Rockville, MD, USA) following the recommended protocol.\nTransfections were conducted overnight. HEK cell media was replaced with 1.0 mL fresh media to incubate cells at 37 °C for up to 6 h, at which point part of the cell culture was spread in the middle of a 35-mm plate as individual cells or small clusters. After 12 h of incubation at 37 °C and 5% CO2, cells were rinsed at the sides with 2.0 mL fresh HEK media. Cells were allowed to recover for at least 1 h prior to calcium imaging.\nAfter incubation, the buffer was removed and cells were rinsed with 4.0 mL fresh HEK Ca^++ Ringer (mM: 140 NaCl, 2.0 CaCl2, 10 HEPES, pH 7.5), and placed on the stage of an inverted microscope (Olympus IX-71, Olympus Corp., Tokyo, Japan) equipped with a cooled CCD camera (ORCA R2, Hamamatsu, Hamamatsu City, Japan). Cells were continuously superfused with Ca^++ Ringer using two gravity fed perfusion contours. The stimulating contour washing the cells (~250 μL/min) was switched rapidly to the stimulus contour using a multi-channel rapid solution changer (RSC-160, Bio-Logic, Claix, France) under the software control of Clampex 9 (Molecular Devices, Sunnyvale, CA, USA).\nFluorescence imaging was performed using Imaging Workbench 6 software (INDEC BioSystems, Santa Clara, CA, USA). Each cell was assigned a region of interest (ROI) and changes in fluorescence intensity within each ROI were measured and expressed as the fractional change in fluorescence intensity (dF) or in some cases as dF/F0 where F0 is the basal fluorescence level before agonist application. […] Continuous traces of multiple responses were compensated for slow drift of the baseline fluorescence when necessary. All recordings were performed at room temperature (22–25 °C).\nCompounds were diluted in either DMSO or ethanol (Sigma Aldrich) depending on their solubility properties. […]"}, "CpomOR6a": {"test_system": "CpomOR6a", "experiment": "Single sensillum recordings, CpomOR6a expressed in Drosophila at1 OSNs", "type": "cell-based, Cydia pomonella", "conditions": "10 μg per stimulus", "from_the_text": "(§1) To perform heterologous expression in D. melanogaster OSNs, CpomORs were amplified using primers in Table 2 and purified PCR products were cloned into the PCR8/GW/TOPO plasmid (Invitrogen) following the recommended protocol. Cassettes with inserts were then transferred from their PCR8/GW/TOPO plasmids to the destination vector (pUASg-HA.attB, constructed by E. Furger and J. Bischof, kindly provided by the Basler group, Zürich), using the Gateway LR Clonase II kit (Invitrogen). The integrity and orientation of inserts was confirmed by sequencing (Sanger sequencer, 3730xl). Transformant UAS-CpomOR3 and UAS-CpomOR1 lines were generated by Best Gene (Chino Hills, CA, USA), using the PhiC31 integrase system, while the transformant UAS-CpomOR6a line was generated in our labs. Briefly, recombinant pUASg-HA.attB-CpomOR plasmids were injected into embryos of a D. melanogaster line containing an attP insertion site within the third chromosome (genotype y1 M{vas-int.Dm}ZH-2A w*; M{3xP3-RFP.attP}ZH-86Fb), leading to non-random integration. To drive expression of CpomORs in at1 OSNs in place of the endogenous receptor Or67d, transformant UAS-CpomOR lines were crossed to the knock-in Or67d^GAL4 line (kindly provided by Barry Dickson) to generate double homozygous lines w^+;UAS-CpomOR; Or67d^GAL4. Additionally, to drive expression of CpomOR3 in ab3A OSNs, the UAS-CpomOR3 line was crossed to the Δhalo;Or22a-Gal4 mutant line[20][57]. To verify insertion of UAS-CpomORs constructs into the genome, gDNA was extracted and used as template in PCR with primers for the full ORF of CpomORs (Table 2).\n(§2) CpomOR1 and CpomOR6a expressed in at1 OSNs, and CpomOR3 expressed in ab3A OSNs, were tested through single sensillum recordings (SSR). Three to 8-day-old flies were immobilized in 100 μL pipette tips with only the top half of the head protruding. The left antenna of each insect was gently pushed with a glass capillary against a double-sided adhesive tape placed on a piece of glass. This piece of glass and the pipette tip were fixed with dental wax on a microscope slide. Electrolytically sharpened tungsten electrodes (Harvard Apparatus Ltd, Edenbridge, United Kingdom) were used to penetrate the insect´s body. The reference electrode was manually inserted in the right eye of the fly, while the recording electrode was manoeuvred with a DC-3K micromanipulator equipped with a PM-10 piezo translator (Märzhäuser Wetzler GmbH, Wetzler, Germany) and inserted at the base of the determined sensilla. Signals coming from the olfactory sensory neurons were amplified 10 times with a probe (INR-02, Syntech, Hilversum, the Netherlands), digitally converted through an IDAC-4-USB (Syntech) interface, and visualized and analysed with the software Autospike v. 3.4 (Syntech). A constant flow of 0.65 m/s of humidified air (charcoal-filtered) was delivered through a glass tube to the antenna. The panel of odorants was given to the insect by inserting pipettes containing a piece of filter paper with the correspondent stimulus in a lateral hole of the glass tube and puffing a flow of 2.5 mL of air during 0.5 s through the pipette. For CpomOR1 and CpomOR6a the panel of odorants was prepared by applying 10 μL of a solution of 1.0 μg/μL of the compounds in Supplementary Dataset S2 and Supplementary Dataset S3, for a total amount of 10 μg per stimulus. In the case of CpomOR3, a similar dilution process was used for the dose response experiments of ethyl-(E,Z)-2,4-decadienoate and methyl-(E,Z)-2,4-decadienoate, as well for dose response of experiments of codlemone acetate in CpomOR6a. Compounds were diluted from concentrations ranging from 0.01 ng/μL to 10 μg/μL in decadic steps, allowing reaching concentrations from 100 pg to 100 μg per stimulus when 10 μL of the dilution was applied in the piece of filter paper. […]"}, "CpomOR3": {"test_system": "CpomOR3", "experiment": "Single sensillum recordings, CpomOR3 expressed in Drosophila ab3A OSNs", "type": "cell-based, Cydia pomonella", "conditions": "dose loaded in the stimulus cartridge", "from_the_text": "To perform heterologous expression in D. melanogaster OSNs, CpomORs were amplified using primers in Table 2 and purified PCR products were cloned into the PCR8/GW/TOPO plasmid (Invitrogen) following the recommended protocol. Cassettes with inserts were then transferred from their PCR8/GW/TOPO plasmids to the destination vector (pUASg-HA.attB, constructed by E. Furger and J. Bischof, kindly provided by the Basler group, Zürich), using the Gateway LR Clonase II kit (Invitrogen). The integrity and orientation of inserts was confirmed by sequencing (Sanger sequencer, 3730xl). […]\nCpomOR1 and CpomOR6a expressed in at1 OSNs, and CpomOR3 expressed in ab3A OSNs, were tested through single sensillum recordings (SSR). […] The reference electrode was manually inserted in the right eye of the fly, while the recording electrode was manoeuvred with a DC-3K micromanipulator equipped with a PM-10 piezo translator (Märzhäuser Wetzler GmbH, Wetzler, Germany) and inserted at the base of the determined sensilla. Signals coming from the olfactory sensory neurons were amplified 10 times with a probe (INR-02, Syntech, Hilversum, the Netherlands), digitally converted through an IDAC-4-USB (Syntech) interface, and visualized and analysed with the software Autospike v. […]"}, "CpomOR1": {"test_system": "CpomOR1", "experiment": "Single sensillum recordings, CpomOR1 expressed in Drosophila at1 OSNs", "type": "cell-based, Cydia pomonella", "conditions": "10 μg per stimulus", "from_the_text": "as §1, §2"}}}
{"smiles": "CCCCC/C=C\\C=C\\C(=O)OCC", "note": "[(E,Z)-ED, ethyl-(E,Z)-2,4-decadienoate]", "values": [{"measurement": "amplitude of the calcium response (mean of the maximum response ± SEM)", "setting": "CpomOrco + OR3; 500 μM, n = 151", "result": "15.07 ± 9.48", "unit": "dF"}, {"measurement": "EC50", "setting": "CpomOrco + OR3; calcium response normalized to 250 μM VUAA3", "result": "454 ± 120", "unit": "µM"}, {"measurement": "Spike/s", "setting": "CpomOR6a; replicate 1", "result": 2, "unit": "Spike/s"}, {"measurement": "Spike/s", "setting": "CpomOR6a; replicate 2", "result": -2, "unit": "Spike/s"}, {"measurement": "Spike/s", "setting": "CpomOR6a; replicate 3", "result": 8, "unit": "Spike/s"}, {"measurement": "Spike/s", "setting": "CpomOR6a; replicate 4", "result": 2, "unit": "Spike/s"}, {"measurement": "Spike/s", "setting": "CpomOR6a; replicate 5", "result": -14, "unit": "Spike/s"}, {"measurement": "Spike/s", "setting": "CpomOR6a; replicate 6", "result": 8, "unit": "Spike/s"}, {"measurement": "Spike/s", "setting": "CpomOR6a; replicate 7", "result": 4, "unit": "Spike/s"}, {"measurement": "Spike/s", "setting": "CpomOR6a; replicate 8", "result": -2, "unit": "Spike/s"}, {"measurement": "Spike/s", "setting": "CpomOR6a; replicate 9", "result": 14, "unit": "Spike/s"}, {"measurement": "minimum dose to elicit a response significantly different from the solvent", "setting": "CpomOR3", "result": 100, "unit": "ng"}, {"measurement": "Spikes/s", "setting": "CpomOR1; replicate 1", "result": -2, "unit": "Spikes/s"}, {"measurement": "Spikes/s", "setting": "CpomOR1; replicate 2", "result": 2, "unit": "Spikes/s"}, {"measurement": "Spikes/s", "setting": "CpomOR1; replicate 3", "result": 2, "unit": "Spikes/s"}, {"measurement": "Spikes/s", "setting": "CpomOR1; replicate 4", "result": 2, "unit": "Spikes/s"}, {"measurement": "Spikes/s", "setting": "CpomOR1; replicate 5", "result": 10, "unit": "Spikes/s"}]}
